Where no end group is shown, it is not given here.
Key:
S. aureus = assay: microbe, parasite or virus in culture; assay type: cell-based, Staphylococcus aureus (ATCC 6538)
Description: (§1) These standard strains of Escherichia coli (E. coli, ATCC 8739), Staphylococcus aureus (S. aureus, ATCC 6538), Pseudomonas aeruginosa (P. aeruginosa, ATCC 27853), Acinetobacter baumannii (A. baumannii, ATCC 1968), Candida albicans (ATCC 10231), and the clinical strain of Methicillin-resistant Staphylococcus aureus (MRSA, MRSA-Z) were obtained from Kunming Medical University. The standard strain of C. neoformans (ATCC 32045) was purchased from Shanghai Yingxin Laboratory Co., Ltd. (CAS NO. YXJ50058). Different strains of E. coli, S. aureus, MRSA, P. aeruginosa, and A. baumannii were cultured with shaking at 37 °C in Luria–Bertani (LB) medium. C. neoformans was cultured at 35 °C in Sabouraud Dextrose Agar (SDA) medium according to the manufacturer’s instructions.
(§2) According to Clinical and Laboratory Standards Institute (CLSI) protocols, the minimum inhibitory concentration (MIC) is the minimum drug concentration at which antibiotics inhibit the growth and reproduction of strains. The different strains were grown in their corresponding media at 35 °C or 37 °C until they entered the exponential growth phase. Fluconazole and amphotericin B were used as positive controls, and sterile 0.9% NaCl was used as a negative control. The peptides were diluted to various concentrations in sterile saline. According to 1 OD = 1 × 10^9 CFU/mL, the above bacterial solution was diluted to 2 × 10^5 CFU/mL with the corresponding medium. In advance, 100 μL of normal saline was added to a sterile 96-well plate, and 200 μL of the sample to be tested was added to the first well. The sample to be tested was subjected to double gradient dilution, and then 100 μL of bacterial solution with a concentration of 2 × 10^5 was added to each well. It was cultured at 35 °C or 37 °C for different times. The light absorption value of the bacterial solution at 600 nm was detected by a microplate reader (Epoch Etock, Biotek, Winooski, VT, USA), and the average concentration of the samples in the pores and adjacent pores that could not detect microbial growth was used as the MIC value.

C. albicans = assay: microbe, parasite or virus in culture; assay type: cell-based, Candida albicans (ATCC 10231)
Description: as §1, §2

A. baumannii = assay: microbe, parasite or virus in culture; assay type: cell-based, Acinetobacter baumannii (ATCC 1968)
Description: as §1, §2

in vitro = in vitro ADME
Procedure: (§3) For investigating the impact of protease on blap-6, trypsin and chymotrypsin were chosen as the enzymes to be studied in the experiment. […] Then these samples (including blap-6 as a standard) were detected by high-performance liquid chromatography (HPLC, Waters, Milford, MA, USA) on a C18 column (4.6 mm × 250 mm, Waters, USA). Solvent A was ultrapure water, and solvent B was acetonitrile. The flow rate was 0.5 mL/min, and the detection wavelength was 280 nm. The column was balanced with 95% solvent A in 0-3 min and eluted with 95-40% solvent A in 3-10 min, 40-5% solvent A in 10-15 min, and 5-95% solvent A in 15-20 min. The degradation rate was calculated by the peak area of the HPLC.

trypsin = assay: in vitro; assay type: in vitro ADME
Procedure: as §3

C. neoformans ATCC 32045 = assay: Fungal-killing kinetics; assay type: cell-based, Cryptococcus neoformans; settings: 10 × MIC; 1 × 10^6 CFU/mL, SDB, 37 °C, colony count
Procedure: The single colony of C. neoformans ATCC 32045 was selected and cultured at 180 rpm and 37 °C, washed three times with normal saline, and then resuspended, and the fungal solution was diluted to 1 × 10^6 CFU/mL with SDB medium. The positive control was fluconazole, and the negative control was normal saline. […] The fungal liquid after adding the sample was quickly put into the 37 °C constant temperature incubator, and the shaking culture was carried out at 180 rpm. […] The plate was placed in a constant temperature incubator for inverted culture for 72 h at 37 °C, and then the single colony on the plate was counted.

[1] = system: C. neoformans ATCC 32045 biofilm; assay: Biofilm inhibition (crystal violet); assay type: cell-based, Cryptococcus neoformans; settings: 1 × MIC, 48 h, 37 °C, A600, dose-dependent
Procedure: The single colony of C. neoformans ATCC 32045 was selected and cultured at 180 rpm and 37 °C. The physiological saline was washed three times and then re-suspended. The fungal concentration was adjusted to 1 × 10^6 CFU/mL, and then 100 μL of the fungal solution was added to each hole in the 96-well plate. The samples to be tested were diluted with sterile saline to 0.5×, 1×, 2×, 4×, and 8 × MIC, and 100 μL was added to the 96-well plate and mixed well. Three replicate wells were set for each concentration. The negative control group was added to the same volume of sterile saline. The positive control group was added with 10 μM fluconazole and amphotericin B, respectively, and the above group was incubated in a 37 °C incubator for 48 h. After that, the supernatant was discarded and washed with sterile PBS three times, 1 min each time. And then, 99% methanol was added and fixed for 5 min. After staining with 100 μL 0.1% crystal violet for 5 min, the plate was washed with PBS, and 100 μL 95% ethanol was added. The absorbance at 600 nm was detected by a microplate reader.

MRSA = assay: microbe, parasite or virus in culture; assay type: cell-based
Description: as §1, §2

E. coli = assay: microbe, parasite or virus in culture; assay type: cell-based, Escherichia coli (ATCC 8739)
Description: as §1, §2

KRCRFRIYRWGFPRRRF [blap-6] showed an MIC (S. aureus) of 9.77 µM, an MIC (C. albicans) of 1.22 µM and an MIC (A. baumannii) of 19.54 µM. For the same sequence, the half-life at 2.44 mg/mL (in vitro; isolated enzyme chymotrypsin) was ~5 h, the metabolised at 1 h, 2.44 mg/mL (in vitro; isolated enzyme chymotrypsin) was 19% and the metabolised at 24 h, 2.44 mg/mL (in vitro; isolated enzyme several chymotrypsin trypsin) was 90%. The half-life at 2.44 mg/mL (in vitro; isolated enzyme trypsin) was ~6 h, the degradation with trypsin (trypsin) was “began to degrade” and the “time within which all the fungi were killed” value (C. neoformans ATCC 32045) was ≤ 30 min. The “inhibition of biofilm formation” value [1] was “significantly inhibited”, the MIC (MRSA) was 4.89 µM and the MIC (E. coli) was 9.77 µM.

Source: publication PMC11121495, “Blap-6, a Novel Antifungal Peptide from the Chinese Medicinal Beetle Blaps rhynchopetera against Cryptococcus neoformans” (International Journal of Molecular Sciences, 2024)
